From ChEMBL document CHEMBL4842340, “Development of Cagrilintide, a Long-Acting Amylin Analogue” (J Med Chem, 2021)
≈ marks a conversion by molar mass, not a printed value. *1 amine or outer side, *2 acyl side, *3 side chain or, on linkers, in order; H or OH if unused. Where a SMILES comes first, the peptide text is derived from it. Bridges are numbered along the chain shown (N, C = ends). [ ]: non-standard residue; d: D form. The star is where a group is joined. C20 diacid = O=C(O)CCCCCCCCCCCCCCCCCCC(=O)*; γGlu = O=C(O)[C@H](CCC(=O)[*:2])N[*:1]; AEEA = NCCOCCOCC(=O)O

Columns and labels:
Insulin (Homo sapiens) [1] = target: Insulin (Homo sapiens) (UniProt P01308); experiment: Effect on insulin (unknown origin) amyloid fibril formation assessed as peptide recovery in glycyl-glycine buffer at pH 4 measured after 45 hrs by thioflavin-T fluorescence assay relative to control; parameters: concentration or dose not given beside the values
Chain of Insulin (Homo sapiens) (P01308 whole entry): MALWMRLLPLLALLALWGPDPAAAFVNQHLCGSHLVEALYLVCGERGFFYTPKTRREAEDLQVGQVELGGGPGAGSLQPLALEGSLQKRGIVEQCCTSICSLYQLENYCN

[2] = Solubility of the compound in lactate at pH 3 by UPLC analysis; type: physicochemical; conditions: lactate buffer
[3] = Agonist activity at rat AMY3R (CT+RAMP3) expressed in tk-ts13 cells assessed as increase in intracellular cAMP level incuabted for 25 mins by CRE luciferase reporter gene assay; type: cell-based; conditions: tk-ts13, 25 min
[4] = Agonist activity at rat calcitonin receptor expressed in BHK-13 cells assessed as increase in intracellular cAMP concentration incubated for 25 mins by CRE luciferase reporter gene assay; type: cell-based; conditions: BHK-13, 25 min
[5] = Displacement of [125I]-amylin from human AMY3R (CTR+RAMP3) expressed in BHK-13 cells measured after 120 mins by scintillation proximity assay; type: cell-based
[6] = Solubility of the compound in bis-tris propane at pH 7 by UPLC analysis; type: physicochemical; conditions: bis-tris propane buffer
Homo sapiens [7] = species on record: Homo sapiens; experiment: Ratio of IC50 for displacement of [125I]-calcitonin from human calcitonin receptor expressed in tk-ts 13 cells to IC50 for displacement of [125I]-amylin from human AMY3R (CTR+RAMP3) expressed in BHK-13 cells; type: cell-based
Rattus norvegicus [8] = experiment: Reduction in food intake in Sprague-Dawley rat at 30 nmol/kg, sc administered as single dose measured after 24 to 48 hrs relative to control; type: functional; parameters: scale not given: the % may be the effect or the level left; conditions: time 24-48 hrs
[9] = Displacement of [125I]-calcitonin from rat calcitonin receptor expressed in tk-ts 13 cells measured after 120 mins by scintillation proximity assay; type: cell-based; conditions: tk-ts13
[10] = Displacement of [125I]-calcitonin from human calcitonin receptor expressed in tk-ts 13 cells measured after 120 mins by scintillation proximity assay; type: cell-based; conditions: tk-ts13
Rattus norvegicus [11] = experiment: Reduction in food intake in Sprague-Dawley rat at 30 nmol/kg, sc administered as single dose measured upto 24 hrs relative to control; type: functional; parameters: scale not given: the % may be the effect or the level left; conditions: time hrs <=24
[12] = Agonist activity at human calcitonin receptor expressed in BHK570 cells assessed as increase in intracellular cAMP concentration incubated for 3 hrs in absence of albumin by CRE luciferase reporter gene assay; type: cell-based; conditions: BHK570, 3 h
[13] = Agonist activity at human AMY3R (CT+RAMP3) expressed in Hollex1 cells incubated for 3 hrs by luminescence assay; type: cell-based; conditions: Hollex1, 3 h
Rattus norvegicus [14] = species on record: Rattus norvegicus; experiment: Ratio of EC50 for rat calcitonin receptor expressed in BHK-13 cells to EC50 for rat AMY3R (CT+RAMP3) expressed in tk-ts13 cells; type: cell-based
[15] = Solubility of the compound in bis-tris propane at pH 6.5 by UPLC analysis; type: physicochemical; conditions: bis-tris propane buffer
Homo sapiens [16] = species on record: Homo sapiens; experiment: Ratio of EC50 for human calcitonin receptor expressed in BHK570 cells to EC50 for human AMY3R (CT+RAMP3) expressed in Hollex1 cells; type: cell-based
[17] = Solubility of the compound in lactate at pH 4 by UPLC analysis; type: physicochemical; conditions: lactate buffer
[18] = Solubility of the compound in bis-tris propane at pH 8 by UPLC analysis; type: physicochemical; conditions: bis-tris propane buffer
[19] = Displacement of [125I]-amylin from rat AMY3R (CTR+RAMP3) expressed in BHK-13 cells measured after 120 mins by scintillation proximity assay; type: cell-based
[20] = Solubility of the compound in bis-tris propane at pH 6 by UPLC analysis; type: physicochemical; conditions: bis-tris propane buffer
Rattus norvegicus [21] = species on record: Rattus norvegicus; experiment: Ratio of IC50 for displacement of [125I]-calcitonin from rat calcitonin receptor expressed in tk-ts 13 cells to IC50 for displacement of [125I]-amylin from rat AMY3R (CTR+RAMP3) expressed in BHK-13 cells; type: cell-based
Insulin (Homo sapiens) [22] = target: Insulin (Homo sapiens) (UniProt P01308); experiment: Effect on insulin (unknown origin) amyloid fibril formation assessed as lag time in glycyl-glycine buffer at pH 4 measured after 45 hrs by thioflavin-T fluorescence assay
[23] = Solubility of the compound in lactate at pH 5 by UPLC analysis; type: physicochemical; conditions: lactate buffer
[24] = Solubility of the compound in bis-tris propane at pH 7.5 by UPLC analysis; type: physicochemical; conditions: bis-tris propane buffer
Rattus norvegicus [25] = experiment: Reduction in food intake in Sprague-Dawley rat at 3 nmol/kg, sc administered as single dose measured upto 24 hrs relative to control; type: functional; parameters: scale not given: the % may be the effect or the level left; conditions: time hrs <=24
Rattus norvegicus [26] = experiment: Reduction in food intake in Sprague-Dawley rat at 3 nmol/kg, sc administered as single dose measured after 24 to 48 hrs relative to control; type: functional; parameters: scale not given: the % may be the effect or the level left; conditions: time 24-48 hrs

SMILES	Activity (Insulin (Homo sapiens) [1]) [%]	solubility [2] [µM]	EC50 [3] [nM]	EC50 [4] [nM]	IC50 [5] [nM]	solubility [6] [µM]	Ratio IC50 (Homo sapiens [7])	Activity (Rattus norvegicus [8]) [%]	IC50 [9] [nM]	IC50 [10] [nM]	Activity (Rattus norvegicus [11]) [%]	EC50 [12] [nM]	EC50 [13] [nM]	Ratio EC50 (Rattus norvegicus [14])	solubility [15] [µM]	Ratio EC50 (Homo sapiens [16])	solubility [17] [µM]	solubility [18] [µM]	IC50 [19] [nM]	solubility [20] [µM]	further results
CC[C@H](C)[C@H](NC(=O)[C@@H]1CCCN1C(=O)CNC(=O)[C@H](Cc1ccccc1)NC(=O)[C@H](CC(N)=O)NC(=O)[C@H](CC(N)=O)NC(=O)[C@H](CO)NC(=O)[C@H](CO)NC(=O)[C@H](Cc1cnc[nH]1)NC(=O)[C@H](Cc1cnc[nH]1)NC(=O)[C@H](CC(C)C)NC(=O)[C@H](Cc1ccccc1)NC(=O)[C@H](CC(N)=O)NC(=O)[C@H](C)NC(=O)[C@H](CC(C)C)NC(=O)[C@H](CCCNC(=N)N)NC(=O)[C@H](CCC(N)=O)NC(=O)[C@@H](NC(=O)[C@H](C)NC(=O)[C@@H]1CSSC[C@H](NC(=O)[C@H](CCCNC(=N)N)NC(=O)[C@H](CCCNC(=N)N)NC(=O)[C@H](CCCNC(=N)N)NC(=O)COCCOCCNC(=O)COCCOCCNC(=O)CC[C@H](NC(=O)CCCCCCCCCCCCCCCCCCC(=O)O)C(=O)O)C(=O)N[C@@H](CC(N)=O)C(=O)N[C@@H]([C@@H](C)O)C(=O)N[C@@H](C)C(=O)N[C@@H]([C@@H](C)O)C(=O)N1)[C@@H](C)O)C(=O)N[C@@H](CC(C)C)C(=O)N1CCC[C@H]1C(=O)N1CCC[C@H]1C(=O)N[C@H](C(=O)N[C@@H](CC(N)=O)C(=O)N[C@H](C(=O)NCC(=O)N[C@@H](CO)C(=O)N[C@@H](CCCNC(=N)N)C(=O)N[C@H](C(=O)N[C@@H](Cc1ccc(O)cc1)C(N)=O)[C@@H](C)O)C(C)C)[C@@H](C)O ({C20 diacid-γGlu-AEEA-AEEA}-RRRCNTATCATQRLANFLHHSSNNFGPILPPTNVGSRTY-NH2; disulfide 4-9)	93	200 (≈ 1020 µg/mL)	0.13	12.1	0.213	200 (≈ 1020 µg/mL)	43	0	89.2	9.18	32	1.24	0.076	93	200 (≈ 1020 µg/mL)	16	200 (≈ 1020 µg/mL)	200 (≈ 1020 µg/mL)	0.648	200 (≈ 1020 µg/mL)	Ratio IC50 (Rattus norvegicus [21]): 138; TIME (Insulin (Homo sapiens) [22]): 45 h; solubility [23]: 200 µM (≈ 1020 µg/mL); solubility [24]: 200 µM (≈ 1020 µg/mL)
CC[C@H](C)[C@H](NC(=O)[C@@H]1CCCN1C(=O)CNC(=O)[C@H](Cc1ccccc1)NC(=O)[C@H](CC(N)=O)NC(=O)[C@H](CC(N)=O)NC(=O)[C@H](CO)NC(=O)[C@H](CO)NC(=O)[C@H](CCC(=O)O)NC(=O)[C@H](Cc1cnc[nH]1)NC(=O)[C@H](CC(C)C)NC(=O)[C@H](Cc1ccccc1)NC(=O)[C@H](CCC(=O)O)NC(=O)[C@H](C)NC(=O)[C@H](CC(C)C)NC(=O)[C@H](CCCNC(=N)N)NC(=O)[C@H](CCC(N)=O)NC(=O)[C@@H](NC(=O)[C@H](C)NC(=O)[C@@H]1CSSC[C@H](NC(=O)[C@H](Cc2cnc[nH]2)NC(=O)CC[C@H](NC(=O)CCCCCCCCCCCCCCCCCCC(=O)O)C(=O)O)C(=O)N[C@@H](CC(N)=O)C(=O)N[C@@H]([C@@H](C)O)C(=O)N[C@@H](C)C(=O)N[C@@H]([C@@H](C)O)C(=O)N1)[C@@H](C)O)C(=O)N[C@@H](CC(C)C)C(=O)N1CCC[C@H]1C(=O)N1CCC[C@H]1C(=O)N[C@H](C(=O)N[C@@H](CC(N)=O)C(=O)N[C@H](C(=O)NCC(=O)N[C@@H](CO)C(=O)N[C@@H](CC(N)=O)C(=O)N[C@H](C(=O)N[C@@H](Cc1ccc(O)cc1)C(N)=O)[C@@H](C)O)C(C)C)[C@@H](C)O ({C20 diacid-γGlu}-HCNTATCATQRLAEFLHESSNNFGPILPPTNVGSNTY-NH2; disulfide 2-7)	0	200 (≈ 891 µg/mL)	0.063	0.355	0.137	15 (≈ 66.9 µg/mL)	13	92	0.812	1.75	93	0.128	0.083	6	16 (≈ 71.3 µg/mL)	2	200 (≈ 891 µg/mL)	138 (≈ 615 µg/mL)	0.034	52 (≈ 232 µg/mL)	Activity (Rattus norvegicus [25]): 50%; Activity (Rattus norvegicus [26]): 45%; Ratio IC50 (Rattus norvegicus [21]): 24; TIME (Insulin (Homo sapiens) [22]): 11 h; solubility [23]: 200 µM (≈ 891 µg/mL); solubility [24]: 58 µM (≈ 259 µg/mL)
CC[C@H](C)[C@H](NC(=O)[C@@H]1CCCN1C(=O)CNC(=O)[C@H](Cc1ccccc1)NC(=O)[C@H](CC(N)=O)NC(=O)[C@H](CC(N)=O)NC(=O)[C@H](CO)NC(=O)[C@H](CO)NC(=O)[C@H](Cc1cnc[nH]1)NC(=O)[C@H](Cc1cnc[nH]1)NC(=O)[C@H](CC(C)C)NC(=O)[C@H](Cc1ccccc1)NC(=O)[C@H](CC(N)=O)NC(=O)[C@H](C)NC(=O)[C@H](CC(C)C)NC(=O)[C@H](CCCNC(=N)N)NC(=O)[C@H](CCC(N)=O)NC(=O)[C@@H](NC(=O)[C@H](C)NC(=O)[C@@H]1CSSC[C@H](NC(=O)[C@H](Cc2cnc[nH]2)NC(=O)CC[C@H](NC(=O)[C@H](Cc2cnc[nH]2)NC(=O)[C@H](Cc2cnc[nH]2)NC(=O)CCCCCCCCCCCCCCCCCCC(=O)O)C(=O)O)C(=O)N[C@@H](CC(N)=O)C(=O)N[C@@H]([C@@H](C)O)C(=O)N[C@@H](C)C(=O)N[C@@H]([C@@H](C)O)C(=O)N1)[C@@H](C)O)C(=O)N[C@@H](CC(C)C)C(=O)N1CCC[C@H]1C(=O)N1CCC[C@H]1C(=O)N[C@H](C(=O)N[C@@H](CC(N)=O)C(=O)N[C@H](C(=O)NCC(=O)N[C@@H](CO)C(=O)N[C@@H](CC(N)=O)C(=O)N[C@H](C(=O)N[C@@H](Cc1ccc(O)cc1)C(N)=O)[C@@H](C)O)C(C)C)[C@@H](C)O ({C20 diacid}-HH[γGlu]HCNTATCATQRLANFLHHSSNNFGPILPPTNVGSNTY-NH2; disulfide 5-10)	9	200 (≈ 945 µg/mL)	0.335	14.1	0.216	1 (≈ 4.72 µg/mL)	6	44	3.33	1.3	75	0.136	0.074	42	1 (≈ 4.72 µg/mL)	2	200 (≈ 945 µg/mL)	1 (≈ 4.72 µg/mL)	0.149	1 (≈ 4.72 µg/mL)	Activity (Rattus norvegicus [25]): 32%; Activity (Rattus norvegicus [26]): 4%; Ratio IC50 (Rattus norvegicus [21]): 22; TIME (Insulin (Homo sapiens) [22]): 6 h; solubility [23]: 200 µM (≈ 945 µg/mL); solubility [24]: 1 µM (≈ 4.72 µg/mL)
